Legend:
Format in all cases: functional, cell-based
COLO 205 = assay: Cytotoxicity against human COLO205 cells assessed as growth inhibition after 24 hrs by MTT assay; conditions: COLO 205, 24 h
A549 = assay: Cytotoxicity against human A549 cells assessed as growth inhibition after 24 hrs by MTT assay; conditions: A549, 24 h
PC-3 = assay: Cytotoxicity against human PC3 cells assessed as growth inhibition after 24 hrs by MTT assay; conditions: PC-3, 24 h
MDA-MB-231 = assay: Cytotoxicity against human MDA-MB-231 cells assessed as growth inhibition after 24 hrs by MTT assay; conditions: MDA-MB-231, 24 h

**Q.** Which results are given for `CCCCc1cc2ccccc2nc1-c1cc(-c2ccccc2)no1`?
**A.** IC50 (COLO 205): > 100 µM; IC50 (A549): > 100 µM; IC50 (PC-3): > 100 µM; IC50 (MDA-MB-231): > 100 µM

**Q.** Which IC50 (COLO 205) does the source give for `CCCc1cc2ccccc2nc1-c1cc(-c2ccccc2)no1` here?
**A.** Its IC50 is 48.9 µM.

**Q.** And the IC50 (A549)?
**A.** The IC50 was 52.5 µM.

**Q.** What about the IC50 (PC-3) of the same molecule?
**A.** Its IC50 is 51.3 µM.

**Q.** And the IC50 (MDA-MB-231)?
**A.** Its IC50 is 47.2 µM.

**Q.** Which IC50 (COLO 205) does the source give for `CCCCCc1cc2ccccc2nc1-c1cc(-c2ccc(C)cc2)no1` here?
**A.** Its IC50 is greater than 100 µM.

**Q.** And the IC50 (A549)?
**A.** Its IC50 is greater than 100 µM.

**Q.** And the IC50 (PC-3)?
**A.** Its IC50 is greater than 100 µM.

**Q.** What about the IC50 (MDA-MB-231) of the same molecule?
**A.** The IC50 was greater than 100 µM.

**Q.** Which results are given for `C(=N\c1ccccc1)/c1cc(-c2ccccc2)no1`?
**A.** IC50 (COLO 205): 89.1 µM; IC50 (A549): 48.1 µM; IC50 (PC-3): > 100 µM; IC50 (MDA-MB-231): > 100 µM

**Q.** For `Cc1ccc(-c2cc(/C=N/c3ccccc3)on2)cc1`, which IC50 (COLO 205) is on record?
**A.** The IC50 was 28.9 µM.

**Q.** And the IC50 (A549)?
**A.** The IC50 was 32 µM.

**Q.** What about the IC50 (PC-3) of the same molecule?
**A.** The IC50 was 31.6 µM.

**Q.** What about the IC50 (MDA-MB-231) of the same molecule?
**A.** The IC50 was 29.4 µM.

**Q.** With `CCc1cc2ccccc2nc1-c1cc(-c2ccccc2)no1` as the molecule, how does the IC50 (COLO 205) read?
**A.** The IC50 was greater than 100 µM.

**Q.** What about the IC50 (A549) of the same molecule?
**A.** Its IC50 is greater than 100 µM.

**Q.** What about the IC50 (PC-3) of the same molecule?
**A.** The IC50 was greater than 100 µM.

**Q.** What about the IC50 (MDA-MB-231) of the same molecule?
**A.** Its IC50 is greater than 100 µM.

**Q.** What does the source list for `CCCCc1cc2ccccc2nc1-c1cc(-c2ccc(F)cc2)no1`?
**A.** IC50 (COLO 205): 25.3 µM; IC50 (A549): 27.5 µM; IC50 (PC-3): 26.3 µM; IC50 (MDA-MB-231): 24.2 µM

**Q.** Which results are given for `COc1cccc2c1C(=O)c1c(O)c3c(c(O)c1C2=O)C[C@@](O)(C(=O)CO)C[C@@H]3O[C@H]1C[C@H](N)[C@H](O)[C@H](C)O1` [DOXORUBICIN]?
**A.** IC50 (COLO 205): 0.7 µM; IC50 (PC-3): 0.6 µM; IC50 (MDA-MB-231): 0.8 µM

**Q.** `CCCCCc1cc2ccccc2nc1-c1cc(-c2ccccc2)no1` was tested. Which IC50 (COLO 205) did it give?
**A.** Its IC50 is greater than 100 µM.

**Q.** And the IC50 (A549)?
**A.** The IC50 was 92.3 µM.

**Q.** And the IC50 (PC-3)?
**A.** The IC50 was greater than 100 µM.

**Q.** What about the IC50 (MDA-MB-231) of the same molecule?
**A.** The IC50 was greater than 100 µM.

**Q.** With `CCc1cc2ccccc2nc1-c1cc(-c2ccc(C)cc2)no1` as the molecule, how does the IC50 (COLO 205) read?
**A.** The IC50 was greater than 100 µM.

**Q.** What about the IC50 (A549) of the same molecule?
**A.** The IC50 was greater than 100 µM.

**Q.** What about the IC50 (PC-3) of the same molecule?
**A.** Its IC50 is greater than 100 µM.

**Q.** What about the IC50 (MDA-MB-231) of the same molecule?
**A.** Its IC50 is greater than 100 µM.

**Q.** Which results are given for `CCc1cc2ccccc2nc1-c1cc(-c2ccc(F)cc2)no1`?
**A.** IC50 (COLO 205): > 100 µM; IC50 (A549): > 100 µM; IC50 (PC-3): > 100 µM; IC50 (MDA-MB-231): > 100 µM

**Q.** What does the source list for `FC(F)(F)c1ccc(-c2cc(/C=N/c3ccccc3)on2)cc1`?
**A.** IC50 (COLO 205): 41.3 µM; IC50 (A549): 38.9 µM; IC50 (PC-3): 35.7 µM; IC50 (MDA-MB-231): 37.4 µM

**Q.** Which IC50 (COLO 205) does the source give for `Fc1ccc(-c2cc(/C=N/c3ccccc3)on2)cc1` here?
**A.** Its IC50 is 33.1 µM.

**Q.** What about the IC50 (A549) of the same molecule?
**A.** The IC50 was 34.5 µM.

**Q.** What about the IC50 (PC-3) of the same molecule?
**A.** Its IC50 is 36.5 µM.

**Q.** And the IC50 (MDA-MB-231)?
**A.** The IC50 was 41.2 µM.

**Q.** Which IC50 (COLO 205) does the source give for `CCCc1cc2ccccc2nc1-c1cc(-c2ccc(C)cc2)no1` here?
**A.** The IC50 was greater than 100 µM.

**Q.** And the IC50 (A549)?
**A.** Its IC50 is greater than 100 µM.

**Q.** What about the IC50 (PC-3) of the same molecule?
**A.** Its IC50 is greater than 100 µM.

**Q.** And the IC50 (MDA-MB-231)?
**A.** Its IC50 is greater than 100 µM.

**Q.** Which IC50 (COLO 205) does the source give for `CCCc1cc2ccccc2nc1-c1cc(-c2ccc(F)cc2)no1` here?
**A.** The IC50 was 50.3 µM.

**Q.** What about the IC50 (A549) of the same molecule?
**A.** The IC50 was 51.3 µM.

**Q.** And the IC50 (PC-3)?
**A.** The IC50 was 42.2 µM.

**Q.** And the IC50 (MDA-MB-231)?
**A.** Its IC50 is 48.4 µM.

**Q.** What does the source list for `CCc1cc2ccccc2nc1-c1cc(-c2ccc(C(F)(F)F)cc2)no1`?
**A.** IC50 (COLO 205): > 100 µM; IC50 (A549): > 100 µM; IC50 (PC-3): > 100 µM; IC50 (MDA-MB-231): > 100 µM

**Q.** Which results are given for `CCCc1cc2ccccc2nc1-c1cc(-c2ccc(C(F)(F)F)cc2)no1`?
**A.** IC50 (COLO 205): 42.2 µM; IC50 (A549): 43.9 µM; IC50 (PC-3): 33.8 µM; IC50 (MDA-MB-231): 36.5 µM

**Q.** How did the IC50 (COLO 205) turn out when `CCCCc1cc2ccccc2nc1-c1cc(-c2ccc(C(F)(F)F)cc2)no1` was run?
**A.** Its IC50 is 11.9 µM.

**Q.** What about the IC50 (A549) of the same molecule?
**A.** Its IC50 is 9.4 µM.

**Q.** And the IC50 (PC-3)?
**A.** Its IC50 is 10.8 µM.

**Q.** And the IC50 (MDA-MB-231)?
**A.** The IC50 was 10.4 µM.

**Q.** What does the source list for `CCCCc1cc2ccccc2nc1-c1cc(-c2ccc(C)cc2)no1`?
**A.** IC50 (COLO 205): > 100 µM; IC50 (A549): > 100 µM; IC50 (PC-3): > 100 µM; IC50 (MDA-MB-231): > 100 µM

**Q.** With `CCCCCc1cc2ccccc2nc1-c1cc(-c2ccc(C(F)(F)F)cc2)no1` as the molecule, how does the IC50 (COLO 205) read?
**A.** The IC50 was 24.5 µM.

**Q.** And the IC50 (A549)?
**A.** Its IC50 is 28.3 µM.

**Q.** What about the IC50 (PC-3) of the same molecule?
**A.** The IC50 was 30.2 µM.

**Q.** What about the IC50 (MDA-MB-231) of the same molecule?
**A.** Its IC50 is 22.1 µM.

Source: ChEMBL document CHEMBL3124930, “Synthesis of novel 5-(3-alkylquinolin-2-yl)-3-aryl isoxazole derivatives and their cytotoxic activity” (Bioorg Med Chem Lett, 2014)
